In patent publication US20070122376A1, “Pheromones and method of preventing infestation of Contarinia nasturtii” (priority 2004, published 2007):

Key:
[1] = system: male C. nasturtii; assay: Wind tunnel assay of male response (landing on odour source); type: in vivo, Contarinia nasturtii; details: for landings on the odor source, response to single component: each component tested individually at the concentrations indicated (FIG. 4), N>=20; for males flying towards the odour source: single components tested individually
Procedure: Calling females were collected from the laboratory culture and submersed in batches in hexane (p.a. grade) for 15 min at room temperature. The supernatant was then decanted and concentrated to the highest concentration tested by blowing off the hexane with N2.
Wind tunnel experiments were performed in the 2nd to 4th hour of the photophase at 22° C. and 73% r.h. in a wind tunnel described in detail by Rauscher et al. (1984). Compounds were diluted in hexane (p.a. grade). For the bioassays, 10 p 1 of the stimulus to be tested was applied onto a piece of fitter paper (Chromatographiepapier “Schleicher & Schuell AG” Auer-Bittmann Soulié AG, Zurich, Switzerland, 69.2 gr/m2, 1 cm^2)which was then placed in the air stream at least 20 sec before the first male was tested. For each stimulus, a series of five males were tested individually, requiring a total of 5-10 min for each series. For each series, a new piece of filter paper was loaded with the respective stimulus.
Males were kept individually in glass tubes (10 cm, 15 mm i.d.) closed at one end with a piece of screen (mesh size 1×1 mm) until they were tested. With these tubes they were transferred into the wind tunnel, where the tube was placed on a pole in horizontal position with the opening upwind, at a distance of 130 cm downwind from the odor source. Time recording was then started and the following steps recorded. Activation by wing-fanning, take off, directed flight towards the odor source, flights closer than 30 cm from the source (“close in”), landing on the source or elsewhere. The test was stopped when no activity or take off was registered during […] or when the insect landed elsewhere.
Of the recorded parameters only the number of successful landings on the source were analyzed

[2] = system: male antenna; assay: GC-EAD electrophysiological recording of male antennal response; design: species or system Contarinia nasturtii; details: natural peaks of ovipositor extract, identified by mass spectra and coelution with synthetics
Procedure: The pots with infested soil were put in glass cages (28×28×33 cm) and kept at L/D 18/6, 25° C., and RH 70% for the adults to emerge. After emergence, males and females were transferred to separate cages. Females were kept under the conditions mentioned and males were kept at L/D 18/6, 15° C., and RH 75%. […] The ovipositors were collected in a vial kept in liquid nitrogen and then extracted for 1-2 min redistilled hexane (LabScan). Extracts were kept in sealed glass capillaries at −18° C. until use.
Male antennal response to ovipositor extracts was analyzed by gas chromatography 25 with electroantennographic detection (GC-EAD). The GC used was a Hewlett Packard 6890 GC with flame ionization detection and an Innowax column (30m×0.25 mm ID, Hewlett Packard, USA). The column temperature was programmed from 80° C. (2 min hold) to 230° C. at 10° C./min. The antennal recordings were made using a Plexiglass holder with two wells connected to an amplifier by gold wire electrodes (JoAC, Lund, Sweden; Zhang et al., 1997; Hillbur, 2001). Male insects were mounted in the holder as described by Hillbur et al. (2000). […] Antennal signals were amplified (JoAC) before they were recorded and analyzed with ElectroAntennoGraphy software (Syntech, Hilversum, The Netherlands).

Row | SMILES | most attractive concentration of (2S)-acetoxyundecane in blend ([1]; blends with 1.5 ng/dispenser (2S,9S)- and 3.0 ng/dispenser (2S,10S)-diacetoxyundecane) [ng/dispenser] | effect of higher concentrations of (2S)-acetoxyundecane on proportion of male landing ([1]; concentrations higher than 0.03 ng/dispenser in blend with 1.5 ng 2S,9S and 3.0 ng 2S,10S) | landings on the odor source, response to single component [1] | males flying towards the odour source [1] | male antennal response (GC-EAD) [2]
1 | CCCCCCCCC[C@H](C)OC(C)=O [(2S)-acetoxyundecane, (2S)-Acetoxyundecane] | 0.03 | inhibitory | 0 | no males flew towards the odour source | 
2 | CC[C@@H](CCCCCC[C@H](C)OC(C)=O)OC(C)=O [(2S,9S)-diacetoxyundecane, (2S,9S)-Diacetoxyundecane] |  |  | 0 | no males flew towards the odour source | EAD-active
3 | CC(=O)O[C@@H](C)CCCCCCC[C@H](C)OC(C)=O [(2S,10S)-diacetoxyundecane, (2S,10S)-Diacetoxyundecane] |  |  | 0 | no males flew towards the odour source | EAD-active
